Square brackets hold non-standard residues; d marks the D form. Peptide text beside a SMILES is read from it. dCha = N[C@H](CC1CCCCC1)C(=O)O; dNle = CCCC[C@@H](N)C(=O)O
These molecules were tested against T1, κ receptor (Cavia porcellus, UniProt P41144) (assay: Radioreceptor assay selective for the kappa receptor (inhibition of [3H]-U69,593 binding)).
T1 construct: tissue homogenates prepared from guinea pig brains (cortex and cerebellum); tissue Harlan Bioproducts for Science (Indianapolis, Ind.); host or cells: guinea pig brain, cortex and cerebellum, crude membrane homogenate
T1 sequence (P41144 whole entry): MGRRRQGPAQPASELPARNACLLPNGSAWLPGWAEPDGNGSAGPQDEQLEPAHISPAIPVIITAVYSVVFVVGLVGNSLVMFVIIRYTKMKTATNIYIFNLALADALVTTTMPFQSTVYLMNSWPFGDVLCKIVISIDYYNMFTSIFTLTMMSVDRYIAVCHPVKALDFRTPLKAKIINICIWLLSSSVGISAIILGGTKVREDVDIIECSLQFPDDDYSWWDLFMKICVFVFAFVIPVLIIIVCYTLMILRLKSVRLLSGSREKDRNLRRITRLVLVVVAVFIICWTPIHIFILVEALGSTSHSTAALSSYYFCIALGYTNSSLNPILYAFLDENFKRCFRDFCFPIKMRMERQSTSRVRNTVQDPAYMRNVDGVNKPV
Set-up: species or system guinea pig
Procedure: Guinea pig brains, frozen in liquid nitrogen, were obtained from Harlan Bioproducts for Science (Indianapolis, Ind.). Frozen brains were thawed, the cerebella and cortex were removed and weighed. The combined cortex and cerebella were homogenized in 40 ml Tris-HCl buffer (50 mM, pH 7.4, 4° C.) containing 100 μM phenylmethylsulfonyl fluoride (PMSF) 5 mM MgCl2 and 1 mg/ml bovine serum albumin (BSA) and centrifuged (39000×g) (Model J2-HC; Beckman Instruments, Fullerton, Calif.) for 10 min at 4° C. The pellets were resuspended in fresh Tris-HCl buffer and incubated at 37° C. for 40 min. Following incubation, the suspensions were centrifuged as above, the resulting pellets resuspended in 100 volumes of Tris buffer and the suspensions combined. Membrane suspensions were prepared and used in the same day. Protein content of the crude homogenates ranged from 0.1-0.3 mg/ml as determined using the method described by Bradford in Anal. Biochem. 72:248-254 (1976), which is incorporated herein by reference.
Binding assays were carried out in polypropylene tubes. […] Assay tubes were incubated for 2.5 hr at 25° C. The reaction was terminated by filtration through GF-B filters (Wallac, Gaithesburg, Md.). The filters were subsequently washed with 6 ml Tris-HCl buffer at 4° C. Bound radioactivity was counted on a Beta-plate Liquid Scintillation Counter (Life Technologies, Gaithersburg, Md.) and expressed in counts per minute (cpm). Standard curves were prepared using 0.05-6300 nM naloxone (Sigma, St. Louis, Mo.). Competitive inhibition assays were performed as above using serial dilutions of the peptide mixtures. IC50 values were then calculated using the software […] (ISI, San Diego, Calif.).

Row | Molecule | IC50 [nM]
1 | N=C(N)NCCC[C@@H](NC(=O)[C@H](Cc1c[nH]c2ccccc12)NC(=O)[C@@H](Cc1ccccc1)NC(=O)[C@H](N)Cc1ccccc1)C(=O)O [SEQ ID NO. 14, (D)Phe-(D)Phe-Trp-(D)Arg] (H-[dF][dF]W[dR]-OH) | 4950
2 | CCCC[C@@H](N)C(=O)N[C@H](Cc1ccccc1)C(=O)N[C@@H](Cc1c[nH]c2ccccc12)C(=O)N[C@H](CC1CCCCC1)C(=O)O [SEQ ID NO. 25, (D)Nle-(D)Phe-Trp-(D)ChAla] (H-[dNle][dF]W[dCha]-OH) | 42800
3 | CCCC[C@@H](N)C(=O)N[C@H](Cc1ccccc1)C(=O)N[C@@H](C(=O)N[C@H](CCCNC(=N)N)C(=O)O)[C@H](C)CC [SEQ ID NO. 26, (D)Nle-(D)Phe-(D)Ile-(D)Arg] (H-[dNle][dF][dI][dR]-OH) | 16
4 | Ac-RFFRYRYRRR-NH2 [SEQ ID NO. 3] | 22
5 | CC[C@@H](C)[C@@H](NC(=O)[C@@H](Cc1ccccc1)NC(=O)[C@H](N)Cc1ccccc1)C(=O)N[C@H](CCCNC(=N)N)C(=O)O [SEQ ID NO. 16, (D)Phe-(D)Phe-(D)Ile-(D)Arg] | 2
6 | N[C@H](Cc1ccccc1)C(=O)N[C@H](Cc1ccccc1)C(=O)N[C@@H](Cc1c[nH]c2ccccc12)C(=O)N[C@H](CC1CCCCC1)C(=O)O [SEQ ID NO. 15, (D)Phe-(D)Phe-Trp-(D)ChAla] (H-[dF][dF]W[dCha]-OH) | 52400
7 | CC[C@@H](C)[C@@H](NC(=O)[C@@H](Cc1ccccc1)NC(=O)[C@H](N)Cc1ccccc1)C(=O)N[C@H](CC1CCCCC1)C(=O)O [SEQ ID NO. 17, (D)Phe-(D)Phe-(D)Ile-(D)ChAla] (H-[dF][dF][dI][dCha]-OH) | 169
8 | Ac-YRFRYRYRRR-NH2 [SEQ ID NO. 2] | 18
9 | CCCC[C@@H](N)C(=O)N[C@H](Cc1ccccc1)C(=O)N[C@@H](C(=O)N[C@H](CC1CCCCC1)C(=O)O)[C@H](C)CC [SEQ ID NO. 27, (D)Nle-(D)Phe-(D)Ile-(D)ChAla] (H-[dNle][dF][dI][dCha]-OH) | 1450
10 | Ac-YRMRYRYRRR-NH2 [SEQ ID NO. 4] | 36
11 | CCCC[C@@H](NC(=O)[C@@H](Cc1ccccc1)NC(=O)[C@H](N)Cc1ccccc1)C(=O)N[C@H](CC1CCCCC1)C(=O)O [SEQ ID NO. 13, (D)Phe-(D)Phe-(D)Nle-(D)ChAla] (H-[dF][dF][dNle][dCha]-OH) | 3
12 | CCCC[C@@H](N)C(=O)N[C@H](Cc1ccccc1)C(=O)N[C@H](CCCC)C(=O)N[C@H](CCCNC(=N)N)C(=O)O [SEQ ID NO. 23, (D)Nle-(D)Phe-(D)Nle-(D)Arg] (H-[dNle][dF][dNle][dR]-OH) | 10
13 | Ac-RRFRYRYRRR-NH2 [SEQ ID NO. 5] | 142
14 | CCCC[C@@H](N)C(=O)N[C@H](Cc1ccccc1)C(=O)N[C@@H](Cc1c[nH]c2ccccc12)C(=O)N[C@H](CCCNC(=N)N)C(=O)O [SEQ ID NO. 24, (D)Nle-(D)Phe-Trp(D)Arg] (H-[dNle][dF]W[dR]-OH) | 11000
15 | Ac-YRTRYRYRRR-NH2 [SEQ ID NO. 1] | 10

Reference: US5610271A, “Kappa receptor selective opioid peptides” (Torrey Pines Institute for Molecular Studies, priority 1995, dated 1997)
